Columns and labels:
ONGHEPA1 cells = assay: Global gene expression analysis (RNA-Seq) and target gene analysis; assay type: cell-based, mouse; conditions: TGF-β vs TGF-β+eupatilin, 24 hr
Protocol: For a mechanism for the therapeutic effect on fibrosis, the global gene expression of DMSO-treated ONGHEPA1 cells (a control group), ONGHEPA1 cells in which fibrosis was induced by TGF-β, and ONGHEPA1 cells treated with TGF-β and eupatilin was measured.
The cells were treated with DMSO, TGF-β or eupatilin for 24 hr, and total RNA was isolated to manufacture a library, after which about 10,000 expressed mRNA species in a total transcriptome of 30 Gb were analyzed using an Illumina High-seq sequencer.

[1] = tested on: Col1 (type 1 Collagen), Vim (Vimentin) and Twist; assay: Real-time RT-PCR of EMT regulators in ONGHEPA1 cells; assay type: cell-based, mouse; conditions: TGF-β + eupatilin 50 μM, 24 hr
Protocol: Also in order to evaluate whether the effect of eupatilin described above is due to the influence of eupatilin on EMT, for the cells incubated for 24 hr in each test group, the extent of expression of […], for example, Col1 (type 1 Collagen), Vim (Vimentin) and Twist, was measured through real-time RT-PCR.

COc1ccc(-c2cc(=O)c3c(O)c(OC)c(O)cc3o2)cc1OC [eupatilin, 2-(3,4-dimethoxyphenyl)-5,7-dihydroxy-6-methoxy-chromone]
Log2fc Latent transforming growth factor beta binding protein 2 (Ltbp2) (ONGHEPA1 cells): −infinite
Log2fc Latent transforming growth factor beta binding protein 4 (Ltbp4) (ONGHEPA1 cells): −infinite
Log2fc Leprecan 1 (Lepre1) (ONGHEPA1 cells): 1.75
Log2fc Lethal giant larvae homolog 1 (Ligi1) (ONGHEPA1 cells): infinite
Log2fc Lysyl oxidase-like 2 (Loxl2) (ONGHEPA1 cells): 1.93
Log2fc Microtubule-associated protein 4 (Map4) (ONGHEPA1 cells): −infinite
Log2fc Multiple coagulation factor deficiency 2 (Mcfd2) (ONGHEPA1 cells): −1.28
Log2fc Natriuretic peptide receptor 3 (Npr3) (ONGHEPA1 cells): 2.82
Log2fc Nischarin (Nisch) (ONGHEPA1 cells): infinite
Log2fc Olfactomedin 2 (Olfm2) (ONGHEPA1 cells): 1.9
Log2fc Oxysterol binding protein-like 9 (Osbpl9) (ONGHEPA1 cells): −infinite
Log2fc Palladin, cytoskeletal associated protein (Palld) (ONGHEPA1 cells): infinite
Log2fc Periostin (Postn) (ONGHEPA1 cells): −4.92
Log2fc Perlecan (Heparan sulfate proteoglycan2) (Hspg2) (ONGHEPA1 cells): infinite
Log2fc Pleckstrin and sec7 domain containing 3 (Psd3) (ONGHEPA1 cells): 1.43
Log2fc Pleiotrophin (Ptn) (ONGHEPA1 cells): 2.06
Log2fc Procollagen lysine, 2-oxoglutarate 5-dioxygenase 2 (Plod2) (ONGHEPA1 cells): −1.48
Log2fc Procollagen-lysine, 2-oxoglutarate 5-dioxygenase 3 (Plod3) (ONGHEPA1 cells): −2.01
Log2fc Procollagen-proline, 2-oxoglutarate 4-dioxygenase (proline 4-hydroxylase), alpha 1 polypeptide (P4ha1) (ONGHEPA1 cells): −1.81
Log2fc Prosaposin (Psap) (ONGHEPA1 cells): infinite
Log2fc Prostate androgen-regulated mucin-like protein 1 (Parm1) (ONGHEPA1 cells): 1.57
Log2fc Protein FAM 53B (Fam53b) (ONGHEPA1 cells): infinite
Log2fc Protein disulfide isomerase associated 6 (Pdia6) (ONGHEPA1 cells): 1.85
Log2fc Ring finger protein 145 (Rnf145) (ONGHEPA1 cells): −infinite
Log2fc Septin2 (Sept2) (ONGHEPA1 cells): infinite
Log2fc Serin (or cysteine) peptidase inhibitor, clade F, member 1 (Serpinf1) (ONGHEPA1 cells): 1.99
Log2fc Serine (or cysteine) peptidase inhibitor, clade E, member 1 (Serpine 1) (ONGHEPA1 cells): −1.78
Log2fc Slit homolog 3 (Slit3) (ONGHEPA1 cells): 3.65
Log2fc Spectrin alpha, erythrocytic 1 (Spta1) (ONGHEPA1 cells): 4.01
Log2fc Spectrin beta, non-erythrocytic 1 (Sptbn1) (ONGHEPA1 cells): infinite
Log2fc Spectrin repeat containing nuclear envelope 2 (Syne2) (ONGHEPA1 cells): −infinite
Log2fc Surfeit 1 (SURF1) (ONGHEPA1 cells): −infinite
Log2fc Synaptopodin (Synpo) (ONGHEPA1 cells): −infinite
Log2fc TEA Domain Transcription factor 1 (TEAD1) (ONGHEPA1 cells): −infinite
Log2fc TLC domain-containing protein 2 (Tlcd2) (ONGHEPA1 cells): infinite
Log2fc Tankyrase, TRF1-interacting ankyrin-related ADP-ribose polymerase 2 (Tnks2) (ONGHEPA1 cells): −infinite
Log2fc Tenascin C (Tnc) (ONGHEPA1 cells): 5.1
Log2fc Thrombospondin, type I domain containing 7A (Thsd7a) (ONGHEPA1 cells): 5.06
Log2fc Thymoma viral proto-oncogene 1 (Akt1) (ONGHEPA1 cells): −infinite
Log2fc Tissue inhibitor of metalloproteinase 3 (Timp3) (ONGHEPA1 cells): infinite
Log2fc TraB domain containing 2B (Trabd2b) (ONGHEPA1 cells): 2.75
Log2fc Transformation/transcription domain-associated protein (Trrap) (ONGHEPA1 cells): −infinite
Log2fc Transforming, acidic coiled-coil containing protein 2 (Tacc2) (ONGHEPA1 cells): infinite
Log2fc Tropomyosin 1, alpha (Tpm1) (ONGHEPA1 cells): infinite
Log2fc Tubulin-specific chaperone d (Tbcd) (ONGHEPA1 cells): 2.11
Log2fc Ubiquitin-like modifier activating enzyme 1 (Uba1) (ONGHEPA1 cells): infinite
Log2fc Vinculin (Vcl) (ONGHEPA1 cells): infinite
Log2fc WNK lysine deficient protein kinase 1 (Wnk1) (ONGHEPA1 cells): −infinite
Log2fc Willians-Beuren syndrome chromosome region 17 homolog (Wbscr17) (ONGHEPA1 cells): −2.83
Log2fc c-fos induced growth factor (Figf) (ONGHEPA1 cells): 2.49
Log2fc rho/rac guanine nucleotide exchange factor (GEF) 2 (Arhgef2) (ONGHEPA1 cells): −infinite
Log2fc v-myc myelocytomatosis viral related oncogene, neuroblastoma derived (Mycn) (ONGHEPA1 cells): 2.05
expression of Col1 (type 1 Collagen) [1]: inhibited
expression of Twist [1]: inhibited
expression of Vim (Vimentin) [1]: inhibited

Reference: patent US10744114B2, “Use of eupatilin as pharmaceutical composition for prevention and treatment of fibrosis using EMT inhibitory activity” (OSTEONEUROGEN INC., priority 2016, dated 2020)
